Results reported in article PMC6054100, “Exploring the chemical space of the lysine-binding pocket of the first kringle domain of hepatocyte growth factor/scatter factor (HGF/SF) yields a new class of inhibitors of HGF/SF-MET binding” (Chemical Science, 2015).

What was measured:
[1] = tested on: MET downstream signalling (Erk 1/2, Akt) in Vero cells; test: MET, Erk1/2 and Akt phosphorylation assay in NK1-stimulated Vero cells (Western blot); format: cell-based; conditions: Vero cells stimulated with NK1; compound 1 mM (lane 5), 0.1% DMSO
Method: We evaluated the effect of piperazine-like compounds and MB605 on Vero cells by assessing MET, Erk 1/2 and Akt phosphorylation in response to stimulation using […] NK1. MB605 was dissolved in DMSO, which limited the range of concentrations tested to ≤1 mM in order to avoid solvent effects on cell function/viability. The water-soluble piperazine-like compounds, in contrast, could be tested at concentrations up to 100 mM.
Fig. 6 Biological activity of the piperazine-like compounds and MB605. (a–e) Vero cells expressing the receptor endogenously on their cell surface were stimulated with HGF/SF or NK1 and phosphorylation of MET and downstream targets Akt and Erk1/2 was analysed. Piperazine-like compounds HEPES (a), (H)EPPS (b), MES (c), MOPS (d) and CAPS (e) were tested at 100 mM (lanes 4), 10 mM (lanes 5), 1 mM (lanes 6) and 100 μM (lanes 7) concentration in the presence of 1 nM NK1. To control for activating or inhibiting effects of the compounds independently of MET, piperazine-like compounds were tested on cells at 100 mM without stimulation by NK1 (lanes 3). Biological activity of MB605 (f) was investigated at 1 mM (lane 5), 100 μM (lane 6) and 10 μM (lane 7) in the presence of a constant concentration of DMSO (0.1%). A solvent control (0.1% DMSO, lane 3) was included in order to account for the effect of DMSO on the cells. A positive control (1 nM NK1 in the presence of 0.1% DMSO) is shown in lane 4. In all experiments, un-stimulated cells served as negative control (lanes 1) while cells stimulated with 1 nM NK1 served as positive control (lanes 2).
The ability of MB605 and the piperazine-like compounds to inhibit MET, Erk and Akt phosphorylation in the presence of NK1 was tested using mammalian Vero cells as described by Ferraris et al.[47] and further details are given in the ESI ^† section of the manuscript. […]
For MET, Erk1/2 and Akt phosphorylation assays, Vero cells were seeded at 2.1 × 10^5 cells we ll -1 (2 ml we ll -1) in 6-well plates and grown to 90% conf luence in 10% FCS/DMEM media and then switched to serum-free medium (to avoid any growth f actors present in the serum).
24 hours post starvation the cells were stimulated for 5 min at 37°C with each individual piperazine -like compounds as well as with NK1 (1 nM) pre-incubated with different concentrations of the piperazine- like compounds (100 mM, 10 mM, 1 mM and 100 μM) or MB605 (1 mM, 100 μM and 10 μM). Stimulations with either 0. 1% DMS O or 1 nM of NK1 […]
solution were used as a negative and a positive control, respectively. The cells were then washed in PBS buffer, lysed on ice f or 30 min and frozen at -80 °C until further analysis. For

[2] = molecular target: T1, lysine-binding pocket of the kringle domain of NK1 (Homo sapiens, UniProt P14210); test: Soaking into NK1 apo crystals, X-ray crystallography; conditions: soaked into NK1 apo crystals
T1 construct: made in house; host or cells: Pichia pastoris
T1 sequence (P14210 32-210 isoform P14210-6 limits assumed): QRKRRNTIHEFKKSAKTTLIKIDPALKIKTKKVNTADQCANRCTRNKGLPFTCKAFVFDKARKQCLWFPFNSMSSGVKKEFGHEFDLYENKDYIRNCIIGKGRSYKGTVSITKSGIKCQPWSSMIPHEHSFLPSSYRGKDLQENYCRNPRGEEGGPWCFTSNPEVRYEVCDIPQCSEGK
Method: Next, three classes of piperazine-like sulphonated compounds containing piperazine ((H)EPPS and PIPES), morpholine (MES and MOPS), or cyclohexane (CHES and CAPS) rings were studied for their binding to NK1 (Table 1), alongside another five sulphonated compounds selected from a chemical fragment library (Table 2).
NK1 buffered in 150 mM NaCl, 50 mM Tris, pH 7.5 (apo-NK1 and all soaking experiments) was concentrated to ∼20 mg mL^–1 using a Vivaspin device with a 10 kDa cut-off membrane (Sartorius Biolab). Crystallisation was carried out in Linbro plates by the vapour diffusion hanging drop technique using a protein : precipitant ratio of 1 : 1 at 20 °C. Previously NK1 has been crystallised in 18% PEG 4000, 200 mM sodium acetate and 150 mM Tris pH 8.5 as precipitant.[19] Here final crystallisation conditions (19% PEG 4000, 200 mM sodium acetate and 150 mM Tris pH 7.5) were optimised around those to achieve high-resolution apo structure. Details of compound soaking, X-ray data collection and structure determination are given in the ESI ^† section of the manuscript. […]
For this, 1 M stock solutions were prepared in DMSO (fragments) or water (piperazine- like compounds) and the pH adjusted to a value within their buffering range with either HCl or NaOH. The seven piperazine- like compounds and their respective pH are: HEPES (pH 7.6), (H)EPPS (pH 7.4), PIPES (pH 7.0), MES (pH 5.8), MOPS (pH 7.2), CHES (pH 8.6) and CAPS (pH 9.7). Secondary stocks of the compounds at 50 mM were prepared in the […]
respective mother liquor and soaked for up to 48 hours.
MB605 was solubilised in 50% DMSO at 20 mM concentration (1% f inal DMSO concentration in the drop) in order to minimize adverse effects of DMSO on the protein crystal. 25% ethylene glycol was used as the cryoprotective agent.
X-ray data collection and processing
X-ray datasets were collected either at the European Synchrotron Radiation Facility (ESRF, Grenoble, France), the Diamond Light Source (DLS, Oxford, UK) or in-house using the X8 PROTEUM (Bruker AXS) at the Department of Biochemistry, University of Cambridge.
Datasets of at least 180° were collected. Raw data collected at synchrotrons were integrated, merged, scaled and reduced using DENZO and […].2 Raw data […]
collected in- house were integrated, merged, scaled and reduced using the PROTEUM 2 software package .3 The CCP4 suite of crystallographic programs (Collaborative

binding in the lysine-binding pocket (crystal structure) [2]: binds in the lysine-binding pocket
SMILES: O=C(O)CCc1ccco1 [MB605]
Activity on NK1-induced MET, Erk 1/2 and Akt phosphorylation [1]: active
